Measurements: patent US4950466A, “Reduction of the severity of 3'-azido-3'-deoxythymidine-induced anemia using a combination of benzylacyclouridine and dipyridamole” (priority 1988, dated 1990)

Key:
[1] = tested on: human immunodifficiency virus reverse transcriptase; conditions: cited from earlier work
[2] = tested on: erythroid burst-forming cells; conditions: in vitro; cited from earlier work
[3] = Blood counts (hemoglobin, hematocrit, white blood cells) in mice receiving AZT, BAU and/or DPR; pooled blood, Coulter Counter; type: in vivo, Female Balb/c mice; parameters: Hb (hemoglobin) / Hct (hematocrit): unit not given here
Method: For oral administration, BAU was dissolved in water to achieve a final concentration of 0.3 mg/mL. For intraperitoneal administration, BAU was dissolved in dimethylsulfoxide (DMSO) to achieve final concentrations of 60, 100, or 120 mg/mL.
The solution was centrifuged at 15,000 rpm for 20 minutes.
(§1) Female Balb/c mice, 6-12 weeks old, were purchased from the Animal Care Facility of the Roger Williams Cancer Center. The animals were randomly divided into eight groups. Six of the treatment protocols were performed in duplicate. Each group contained either eight or nine animals. The animals were weighed once weekly. Food and water was available ad libitum. Blood samples were obtained from the tail vein. The first blood sample was obtained on Day 0 and subsequent samples were obtained on Days 19, 27, 34 and 44, 48, 54 and 68 after the initiation of drug treatment. With each sampling, approximately 100 ul of blood was removed from each animal. The blood obtained from the animals in each group was pooled and analyzed by Coulter Counter. On each sample, hemoglobin, hematocrit, and white blood cell count were determined. The mean red cell volume was calculated. The Treatment Groups were as follows:
DMSO was given ip, 0.O1 mL/5 grams body weight, once weekly.
Group 4--BAU 240 mg/kg, ip, once weekly.
This corresponds to a daily administered dose of 43 mg/kg.
The concentration was 0.69 mg/ml which corresponds to an administered dose of 100 mg/kg/day.

[4] = Weekly body weight of treated mice; type: in vivo, Female Balb/c mice; conditions: measured each week
Method: as §1
Body weights of the animals in the treatment groups were measured each week.

[5] = tested on: granulocyte macrophage colony forming cells; conditions: in vitro; cited from earlier work
[6] = Oral bioavailability of BAU; conditions: in vivo, 43 mg/kg, drinking water, read-out: bioavailability of BAU administered orally
Method: Group 7--AZT administered in the drinking water (1 mg/mL) and BAU administered in the same container of drinking water (0.3 mg/mL). This corresponds to a daily administered dose of 43 mg/kg. The bioavailability of BAU administered orally was 80%. Therefore, the bioavailable dose of BAU administered to this group was 240 mg/kg/week.

[7] = tested on: uridine phosphorylase; conditions: cited from earlier work
[8] = tested on: human bone marrow progenitor (HBMP) cells; conditions: in vitro; cited from earlier work
[9] = human, in vivo; cited from earlier work
[10] = Day 0, AZT 1 mg/mL and/or DPR 0.69 mg/mL in drinking water, no BAU (Groups 3, 8, 9)
[11] = Day 0, AZT 1 mg/mL in drinking water (145 mg/kg/day) + DMSO ip once weekly (Group 2)
[12] = Day 19, AZT 1 mg/mL and/or DPR 0.69 mg/mL in drinking water, no BAU (Groups 3, 8, 9)
[13] = Day 19, AZT 1 mg/mL in drinking water (145 mg/kg/day) + DMSO ip once weekly (Group 2)
[14] = Day 27, AZT 1 mg/mL and/or DPR 0.69 mg/mL in drinking water, no BAU (Groups 3, 8, 9)
[15] = Day 27, AZT 1 mg/mL in drinking water (145 mg/kg/day) + DMSO ip once weekly (Group 2)
[16] = Day 34, AZT 1 mg/mL and/or DPR 0.69 mg/mL in drinking water, no BAU (Groups 3, 8, 9)
[17] = Day 34, AZT 1 mg/mL in drinking water (145 mg/kg/day) + DMSO ip once weekly (Group 2)
[18] = Day 48, AZT 1 mg/mL in drinking water (145 mg/kg/day) + DMSO ip once weekly (Group 2)
[19] = Day 48, AZT 1 mg/mL in drinking water (Group 3)
[20] = Day 0, BAU 240 mg/kg ip once weekly, without (Group 4) or with (Group 5) AZT 1 mg/mL in drinking water
[21] = Day 19, BAU 240 mg/kg ip once weekly, without (Group 4) or with (Group 5) AZT 1 mg/mL in drinking water
[22] = Day 27, BAU 240 mg/kg ip once weekly, without (Group 4) or with (Group 5) AZT 1 mg/mL in drinking water
[23] = Day 34, BAU 240 mg/kg ip once weekly, without (Group 4) or with (Group 5) AZT 1 mg/mL in drinking water
[24] = Day 48, BAU 240 mg/kg ip once weekly, without (Group 4) or with (Group 5) AZT 1 mg/mL in drinking water
[25] = Day 44, DPR 0.69 mg/mL with or without AZT 1 mg/mL in drinking water (Groups 8, 9)
[26] = Day 54, DPR 0.69 mg/mL with or without AZT 1 mg/mL in drinking water (Groups 8, 9)
[27] = Day 68, DPR 0.69 mg/mL with or without AZT 1 mg/mL in drinking water (Groups 8, 9)

SMILES: Cc1cn([C@H]2C[C@H](N=[N+]=[N-])[C@@H](CO)O2)c(=O)[nH]c1=O [AZT, 3'-Azido-3'-deoxythymidine]
- inhibition of HIV reverse transcriptase [1]: inhibits the human immunodifficiency virus reverse transcriptase
- inhibition of erythroid burst-forming cells [2]: consistently inhibit granulocyte macrophage colony forming cells and erythroid burst-forming cells in dose-dependent fashion
- Hb (hemoglobin) [3, 10]: 17.3
- Hct (hematocrit) [3, 10]: 43.0
- WBC (white blood cell count) [3, 10]: 8.4
- Hb (hemoglobin) [3, 11]: 17.3
- Hct (hematocrit) [3, 11]: 49.0
- WBC (white blood cell count) [3, 11]: 10.1
- Hb (hemoglobin) [3, 12]: 13.7
- Hct (hematocrit) [3, 12]: 43.0
- Hb (hemoglobin) [3, 13]: 12.8
- Hct (hematocrit) [3, 13]: 36.0
- WBC (white blood cell count) [3, 13]: 21.2
- Hb (hemoglobin) [3, 14]: 13.6
- Hct (hematocrit) [3, 14]: 43
- WBC (white blood cell count) [3, 14]: 13.6
- Hb (hemoglobin) [3, 15]: 13
- Hct (hematocrit) [3, 15]: 40
- WBC (white blood cell count) [3, 15]: 11.6
- Hb (hemoglobin) [3, 16]: 13.9
- Hct (hematocrit) [3, 16]: 42
- WBC (white blood cell count) [3, 16]: 13.3
- Hb (hemoglobin) [3, 17]: 11.6
- Hct (hematocrit) [3, 17]: 35
- WBC (white blood cell count) [3, 17]: 11.5
- Hb (hemoglobin) [3, 18]: 11.0
- Hct (hematocrit) [3, 18]: 33
- WBC (white blood cell count) [3, 18]: 5.0
- Hb (hemoglobin) [3, 19]: 13.2
- Hct (hematocrit) [3, 19]: 34
- WBC (white blood cell count) [3, 19]: 5.6
- nature of anemia produced in mice ([3]; mice): typical of AZT induced anemia in humans
- body weight over time [4]: tended to lose weight as their anemia increased over time
- inhibition of granulocyte macrophage colony forming cells [5]: consistently inhibit granulocyte macrophage colony forming cells and erythroid burst-forming cells in dose-dependent fashion

SMILES: O=c1[nH]c(=O)n(COCCO)cc1Cc1ccccc1 [BAU, 5-benzylacyclouridine]
- Hb (hemoglobin) [3, 20]: 18.3
- Hct (hematocrit) [3, 20]: 52.0
- WBC (white blood cell count) [3, 20]: 8.8
- Hb (hemoglobin) [3, 21]: 17.3
- Hct (hematocrit) [3, 21]: 50.0
- WBC (white blood cell count) [3, 21]: 10.8
- Hb (hemoglobin) [3, 22]: 16.2
- Hct (hematocrit) [3, 22]: 51
- WBC (white blood cell count) [3, 22]: 6.6
- Hb (hemoglobin) [3, 23]: 17.2
- Hct (hematocrit) [3, 23]: 50
- WBC (white blood cell count) [3, 23]: 7.9
- Hb (hemoglobin) [3, 24]: 16.6
- Hct (hematocrit) [3, 24]: 49
- WBC (white blood cell count) [3, 24]: 6.4
- bioavailability [6]: 80%
- inhibition of cleavage of 5-fluoro-2'-deoxyuridine [7]: inhibits the cleavage of the antineoplastic 5-fluoro-2'-deoxyuridine
- inhibition of uridine phosphorylase ([7]; cleavage of uridine to uracil): inhibitor of the enzyme uridine phosphorylase

SMILES: OCCN(CCO)c1nc(N2CCCCC2)c2nc(N(CCO)CCO)nc(N3CCCCC3)c2n1 [DPR, 2,2',2"2'"-(4,8-dipiperidinopyimidol[5,4-d]pyrimidene-2,6-diyldinitrilo) tetraethanol]
- Hb (hemoglobin) [3, 10]: 16.5
- Hct (hematocrit) [3, 10]: 48.0
- WBC (white blood cell count) [3, 10]: 5.9
- Hb (hemoglobin) [3, 12]: 14.3
- Hct (hematocrit) [3, 12]: 49
- WBC (white blood cell count) [3, 12]: 11.1
- Hb (hemoglobin) [3, 14]: 15.5
- Hct (hematocrit) [3, 14]: 45
- WBC (white blood cell count) [3, 14]: 10
- Hb (hemoglobin) [3, 16]: 14.8
- Hct (hematocrit) [3, 16]: 45
- WBC (white blood cell count) [3, 16]: 9.4
- Hb (hemoglobin) [3, 25]: 14.6
- Hct (hematocrit) [3, 25]: 45
- WBC (white blood cell count) [3, 25]: 9.1
- Hb (hemoglobin) [3, 26]: 15.4
- Hct (hematocrit) [3, 26]: 46
- WBC (white blood cell count) [3, 26]: 7.6
- Hb (hemoglobin) [3, 27]: 15.7
- Hct (hematocrit) [3, 27]: 45
- WBC (white blood cell count) [3, 27]: 9.3

SMILES: Nc1ccn([C@@H]2O[C@H](CO)[C@@H](O)[C@H]2O)c(=O)n1 [cytidine]
- reversal of toxic effect of AZT in HBMP cells [8]: could reverse the toxic effect of AZT in HBMP cells

SMILES: O=c1ccn([C@@H]2O[C@H](CO)[C@@H](O)[C@H]2O)c(=O)[nH]1 [uridine]
- body temperature [9]: rapid and potentially dangerous rises in body temperature
- elimination from the plasma [9]: rapidly eliminated from the plasma
- reversal of toxic effect of AZT in HBMP cells [8]: could reverse the toxic effect of AZT in HBMP cells
